Data as given in patent US8114895B2, “Use of bipyridine compound ‘Caerulomycin A’ derivatives and analogs thereof as immunosuppressive agents” (Council of Science and Industrial Research, priority 2005, dated 2012).
Entries after “also recorded” stand apart in the source; their conditions may differ.

Tested on: BALB/c splenocytes (responder cells) and γ-irradiated C57BL/6J splenocytes (stimulator cells)
Test: Mixed lymphocyte reaction (MLR), [3H]-thymidine incorporation
Format: cell-based, mice
Protocol: The MLR was performed in 96-well tissue culture plates, with each well containing 4×10^5 BALB/c splenocytes (responder cells) and 4×10^5 γ-irradiated (3000R) C57BL/6J splenocytes (stimulator cells) in 200 μl RPMI/FCS-10% medium and with various concentrations of Caerulomycin A (1-0.0125 μg/ml) and Cyclosporin A (0.0125-10 μg/ml). The control cultures consisting of BALB/c splenocytes in medium alone, γ-irradiated C57BL/6J splenocytes and BALB/c splenocytes+γ-irradiated C57BL/6J splenocytes were also kept. After 4 days, the cultures were pulsed with 1 μCi of [^3H]-thymidine and harvested 16 h later by a Skatron cell harvester. Radioactivity incorporated was measured by liquid scintillation counting and data expressed as mean counts per minute (cpm).
Examples establishing the role of Caerulomycin A [isolated from a novel species of Actinoalloteichus] in inducing immunosuppression based on the following: • Splenocytes of BALB/c mice were stimulated with either ConA (1 μg/ml and 2 μg/ml) or LPS (5 μg/ml and 10 μg/ml) and were cultured with different concentrations of Caerulomycin A (0.0003-0.1 μg/ml). […] Radioactivity incorporated was measured by liquid scintillation counting. • Antigen ovalbumin (100 μg/ml) emulsified in Freund's complete adjuvant was injected in a group consisting of 5 BALB/c mice. […] Radioactivity incorporated was measured by liquid scintillation. […]

Q: What does the source list for `COc1cc(/C=N/O)nc(-c2ccccn2)c1` [Caerulomycin A, (E)-4-methoxy-2,2′-bipyridine-6-carbaldehyde oxime]?
A: MLR reaction (proliferation) (Caerulomycin A 1-0.0125 μg/ml, Cyclosporin A 0.0125-10 μg/ml, 4 days): dose dependent inhibition; also recorded: substantially reduced the MLR reaction; potency in inhibiting MLR relative to Cyclosporin A (CsA) (similar amount of inhibition of proliferation at a lesser dose than CsA): 10 fold
